Data from PubChem BioAssay AID1963860 (Molecular Pharmacology Branch, DTP, NCI, 2024).

Test system: CN0375-F725-PDC KRAS spheroid viability
Assay: Anticancer human tumor CN0375-F725-PDC patient-derived colon carcinoma cell line growth inhibition [KRAS2]
Conditions: spheroids with HUVEC and MSC; for IC50: curve of first compound; for viability, T/C: stronger effect = lower value
Procedure, shortened: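 KRAS-mutant tumor cells were grown as spheroids with HUVEC endothelial cells and human MSCs as stroma. Targeted agents were tested alone and with KRAS pathway inhibitors. Doses started at or near clinical Cmax, or 10 microM, descending half-log.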

[1] = second compound 0.0316 µM, first compound 0.0316 µM
[2] = second compound 0.0316 µM, first compound 0.1 µM
[3] = second compound 0.0316 µM, first compound 0.316 µM
[4] = second compound 0.0316 µM, first compound 1 µM
[5] = second compound 0.0316 µM, first compound 3.16 µM
[6] = second compound 0.1 µM, first compound 0.0316 µM
[7] = second compound 0.1 µM, first compound 0.1 µM
[8] = second compound 0.1 µM, first compound 0.316 µM
[9] = second compound 0.1 µM, first compound 1 µM
[10] = second compound 0.1 µM, first compound 3.16 µM
[11] = second compound 0.1 µM, first compound 10 µM
[12] = second compound 0.316 µM, first compound 0.0316 µM
[13] = second compound 0.316 µM, first compound 0.1 µM
[14] = second compound 0.316 µM, first compound 0.316 µM
[15] = second compound 0.316 µM, first compound 1 µM
[16] = second compound 0.316 µM, first compound 3.16 µM
[17] = second compound 0.316 µM, first compound 10 µM
[18] = second compound 1 µM, first compound 0.0316 µM
[19] = second compound 1 µM, first compound 0.1 µM
[20] = second compound 1 µM, first compound 0.316 µM
[21] = second compound 1 µM, first compound 1 µM
[22] = second compound 1 µM, first compound 3.16 µM
[23] = second compound 1 µM, first compound 10 µM
[24] = second compound 3.16 µM, first compound 0.0316 µM
[25] = second compound 3.16 µM, first compound 0.1 µM
[26] = second compound 3.16 µM, first compound 0.316 µM
[27] = second compound 3.16 µM, first compound 1 µM
[28] = second compound 3.16 µM, first compound 3.16 µM
[29] = second compound 3.16 µM, first compound 10 µM
[30] = second compound 10 µM, first compound 0.0316 µM
[31] = second compound 10 µM, first compound 0.1 µM
[32] = second compound 10 µM, first compound 0.316 µM
[33] = second compound 10 µM, first compound 1 µM
[34] = second compound 10 µM, first compound 3.16 µM
[35] = second compound 10 µM, first compound 10 µM
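Also: spheroids exposed to agents for 7 days.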

| SMILES | IC50 (second compound 0.1 µM) [µM] | IC50 (second compound 0.316 µM) [µM] | IC50 (second compound 1 µM) [µM] | IC50 (second compound 3.16 µM) [µM] | viability, T/C [6] [%] | viability, T/C [7] [%] | viability, T/C [8] [%] | viability, T/C [9] [%] | viability, T/C [10] [%] | viability, T/C [12] [%] | viability, T/C [13] [%] | viability, T/C [14] [%] | viability, T/C [15] [%] | viability, T/C [16] [%] | viability, T/C [18] [%] | viability, T/C [19] [%] | viability, T/C [20] [%] | viability, T/C [21] [%] | viability, T/C [22] [%] | viability, T/C [24] [%] | other results |
| --- | --- | --- | --- | --- | --- | --- | --- | --- | --- | --- | --- | --- | --- | --- | --- | --- | --- | --- | --- | --- | --- |
| COc1cc2nccc(Oc3ccc(NC(=O)C4(C(=O)Nc5ccc(F)cc5)CC4)cc3)c2cc1OC + C=CC(=O)N1CCN(c2nc(OCC3CCCN3C)nc3c2CCN(c2cccc4cccc(C)c24)C3)CC1CC#N | > 10 | > 10 | 1.91 | < 0.0316 | 101 | 101 | 92.6 | 83.2 | 53.8 | 96.6 | 100 | 85.9 | 80.7 | 56.9 | 95.5 | 92 | 90.7 | 75.7 | 29.9 | 14.4 | IC50 (second compound 0.0316 µM): > 10 µM; viability, T/C [1]: 106%; viability, T/C [2]: 100%; viability, T/C [3]: 91.3%; viability, T/C [4]: 85.9%; viability, T/C [5]: 61.1%; viability, T/C (second compound 0.0316 µM, first compound 10 µM): 69.8%; viability, T/C [11]: 68.9%; viability, T/C [17]: 52.8%; viability, T/C [23]: 9.59%; viability, T/C [25]: 18.7%; viability, T/C [26]: 3.2%; viability, T/C [27]: 0.26%; viability, T/C [28]: 0.13%; viability, T/C [29]: 0.17% |
| CC1(C)CCC(CN2CCN(c3ccc(C(=O)NS(=O)(=O)c4ccc(NCC5CCOCC5)c([N+](=O)[O-])c4)c(Oc4cnc5[nH]ccc5c4)c3)CC2)=C(c2ccc(Cl)cc2)C1 + CNCc1ccccc1-c1csc(C(C)Nc2nc(C)nc3cc(OC)c(OC)cc23)c1 | 4.81 | 2.83 | < 0.0316 | < 0.0316 | 104 | 104 | 103 | 96.2 | 61.6 | 90.7 | 95.5 | 93.4 | 89.5 | 45.9 | 36.5 | 42.3 | 40.7 | 50.9 | 15.2 | 0.26 | IC50 (second compound 10 µM): < 0.0316 µM; viability, T/C [11]: 29.8%; viability, T/C [17]: 18.7%; viability, T/C [23]: 7.89%; viability, T/C [25]: 0.27%; viability, T/C [26]: 0.18%; viability, T/C [27]: 0.2%; viability, T/C [28]: 0.25%; viability, T/C [29]: 0.68%; viability, T/C [30]: 0.12%; viability, T/C [31]: 0.14%; viability, T/C [32]: 0.13%; viability, T/C [33]: 0.13%; viability, T/C [34]: 0.16%; viability, T/C [35]: 0.19% |
| CC1(C)CCC(CN2CCN(c3ccc(C(=O)NS(=O)(=O)c4ccc(NCC5CCOCC5)c([N+](=O)[O-])c4)c(Oc4cnc5[nH]ccc5c4)c3)CC2)=C(c2ccc(Cl)cc2)C1 + COc1cc2nc(C)nc(NC(C)c3cc(N)cc(C(F)(F)F)c3)c2cc1OC1CCOC1 | 6.37 | 5.61 | 2.8 | 2.08 | 99.9 | 100 | 92.4 | 97.4 | 66.2 | 93.7 | 100 | 94.3 | 93.7 | 59.4 | 93.1 | 88 | 94.6 | 87.5 | 45.6 | 81.4 | IC50 (second compound 10 µM): < 0.0316 µM; viability, T/C [11]: 39.6%; viability, T/C [17]: 40.6%; viability, T/C [23]: 27.2%; viability, T/C [25]: 85.4%; viability, T/C [26]: 91.8%; viability, T/C [27]: 74.6%; viability, T/C [28]: 36%; viability, T/C [29]: 28.6%; viability, T/C [30]: 11.2%; viability, T/C [31]: 14.5%; viability, T/C [32]: 19%; viability, T/C [33]: 26.2%; viability, T/C [34]: 27.2%; viability, T/C [35]: 18.3% |
| CC1COCCN1c1cc(-c2ccnn2C)c2ccnc(-c3ccn[nH]3)c2n1 (stereo not given) + C=CC(=O)N1CCN(c2nc(OCC3CCCN3C)nc3c2CCN(c2cccc4cccc(C)c24)C3)CC1CC#N | > 3.16 | > 3.16 | > 3.16 | < 0.01 | 98.4 | 81.4 | 79.3 | 65.7 | 53.4 | 93.4 | 84.6 | 78.5 | 65.2 | 55.6 | 88.3 | 75.1 | 71 | 66.5 | 51 | 35.9 | IC50 (second compound 0.0316 µM): > 3.16 µM; viability, T/C (second compound 0.0316 µM, first compound 0.01 µM): 109%; viability, T/C [1]: 94.6%; viability, T/C [2]: 84.8%; viability, T/C [3]: 84.6%; viability, T/C [4]: 68.4%; viability, T/C [5]: 57.2%; viability, T/C (second compound 0.1 µM, first compound 0.01 µM): 99.8%; viability, T/C (second compound 0.316 µM, first compound 0.01 µM): 98%; viability, T/C (second compound 1 µM, first compound 0.01 µM): 88.1%; viability, T/C (second compound 3.16 µM, first compound 0.01 µM): 36.8%; viability, T/C [25]: 24.4%; viability, T/C [26]: 25%; viability, T/C [27]: 17.5%; viability, T/C [28]: 20.5% |
